Data: publication PMC11401910, “Dual client binding sites in the ATP-independent chaperone SurA” (Nature Communications, 2024)
Entries after “also recorded” stand apart in the source; their conditions may differ. Read-outs that look alike come from different tables or passages of the source.

How the values were obtained:
[1] = molecular target: T1, SurA-WT (Escherichia coli, UniProt P0ABZ6); type: binding; set-up: made in house; host or cells: E. coli BL21(DE3)
Method: All NMR experiments were performed on a 950-MHz Bruker Ascend Avance III HD NMR spectrometer equipped with either a Bruker 3 mm TCI or 5 mm TXO triple-resonance cryogenically cooled probe. Peptide binding experiments were performed in 5 mM EDTA, 20 mM Tris-HCl, pH 8.0 with 5 % (v/v) D2O at 25 °C. Binding experiments using full-length OMP sequences also contained 0.8 M urea. Data was acquired for ~16 h with the exception of OMP-containing experiments which were acquired for ~5 h. […] (2D ^1H-^13C SOFAST-HMQC)[70]. […] Errors in the intensity ratios for each peak between two spectra were obtained by propagating the errors according to:1 δR=R*δX/X+δY/Y where δR is the error in the intensity ratio, |R| is the value of the intensity ratio, X and Y are the intensity values for the peak in the first and second spectrum, respectively, and δX and δY are the noise floor values for the first and second spectrum, respectively.
Z-scores for intensity ratio and CSP data were calculated using:3 Zi=xi−μ/σ where xi is the value for a particular peak, and µ and σ are the mean and standard deviation for all peaks, respectively.
For assignment of SurA-WT Ile and Met residues (43 in total) each residue was individually mutated (Supplementary Table 3), and the effect of the mutation assessed by methyl-TROSY NMR. Samples contained 5–70 µM SurA variant. Assignment experiments (2D ^1H-^13C SOFAST-HMQCs) for Ile or Met variants were performed in 20 mM sodium phosphate, 50 mM NaCl, pH 7.5 (at 35 °C), or 20 mM Tris-HCl, pH 8 (at 25 °C), respectively. […] The ^1H chemical shift assignments were referenced using 2,2-dimethyl-2-silapentane-5-sulphonic acid (DSS) at 25 °C as a standard. The ^13C chemical shifts were referenced indirectly to DSS. NMR assignments have been deposited in the Biological Magnetic Resonance Bank (BMRB) with Entry ID 52180.

[2] = molecular target: T1, SurA-WT; conditions: pH 8
From the text: (1 picture or pasted object on this page, not shown here)
Source data are provided as a Source Data file.

[3] = molecular target: SurA; conditions: read-out: Kd, binding of peptide to SurA; cited from earlier work
From the text: (where Ar is an aromatic residue and X is any amino acid), or aromatic-enriched sequences containing an Ar-X-Ar-X-Pro motif. […] Both of these types of peak changes (shifts and/or broadening), can report on binding or conformational changes caused by binding at the location of the corresponding ^13CH3 probe[73],[74].

[4] = 5 µM SurA-WT, 200 µM peptide (SVD and WEYIPNV 50 µM), 5 mM EDTA, 20 mM Tris-HCl pH 8, 25 °C

T1 sequence (P0ABZ6 other isoform, or with tags, fused parts or gaps): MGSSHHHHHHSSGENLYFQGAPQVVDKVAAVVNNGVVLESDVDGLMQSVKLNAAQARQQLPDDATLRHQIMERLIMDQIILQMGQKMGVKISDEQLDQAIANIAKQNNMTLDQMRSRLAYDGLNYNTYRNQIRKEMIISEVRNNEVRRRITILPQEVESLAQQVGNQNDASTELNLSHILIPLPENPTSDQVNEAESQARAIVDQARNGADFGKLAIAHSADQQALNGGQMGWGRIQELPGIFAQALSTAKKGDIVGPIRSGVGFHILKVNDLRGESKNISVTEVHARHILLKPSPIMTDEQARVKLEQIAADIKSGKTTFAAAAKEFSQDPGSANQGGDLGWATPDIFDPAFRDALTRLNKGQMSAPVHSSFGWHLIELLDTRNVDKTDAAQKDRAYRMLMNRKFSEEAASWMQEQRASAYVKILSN

Molecule	Interaction of peptide with SurA-WT binding sites (core, P1) by methyl-TROSY NMR, in words [1, 4]	Interaction of peptide with SurA-WT binding sites (core, P1) by methyl-TROSY NMR, in words ([1]; pH 8)	Affinity of peptide for SurA-WT by ITC (in words) [2]	Kd [3] [µM]
CSCC[C@H](NC(=O)[C@H](CCCCN)NC(=O)[C@H](CC(N)=O)NC(=O)[C@H](CCSC)NC(=O)[C@H](CCC(N)=O)NC(C)=O)C(=O)NCC(=O)NCC(=O)N[C@@H](Cc1ccccc1)C(=O)N[C@@H](CC(N)=O)C(=O)N[C@@H](CC(C)C)C(=O)N[C@@H](CCCCN)C(=O)N[C@@H](Cc1ccc(O)cc1)C(=O)N[C@@H](CCCNC(=N)N)C(=O)N[C@@H](Cc1ccc(O)cc1)C(=O)N[C@@H](CCC(=O)O)C(N)=O [QMN]	also affect the peak for M231 in the P1 domain; also recorded: binding results in conformational changes associated with core-P1 opening			
Ac-KHDTSDYGFSYGAGL-NH2 [KHD]	also affect the peak for M231 in the P1 domain			
NLKYRYE [QMN^C-term, C-terminal seven residues of QMN]		demonstrated binding at the core site, but with binding largely abolished at the P1 site		
WEYIPNV [reference compound]		severe broadening of the resonance for M231; also recorded: substantial CSPs in the P1 domain	consistent with literature values	1 to 14
